Measurements reported in patent publication US12559492B2, “BRAF degraders” (C4 Therapeutics, Inc., priority 2020, dated 2026).

Target: BRAF^V600E protein (Homo sapiens, UniProt P15056, V600E)
Assay: HiBiT cellular BRAF V600E degradation assay
Format: cell-based
Details: 24 h incubation; for DC50: A375.10 cells (HiBiT tag knocked in at N-terminal of BRAF V600E), concentration at which 50% of total cellular BRAF V600E is degraded; for Emax: A375.10 cells, Emax = amount of residual protein remaining in the cell after compound treatment, read-out: HiBit 24 h Emax

Chain of BRAF^V600E protein (P15056 whole entry V600E): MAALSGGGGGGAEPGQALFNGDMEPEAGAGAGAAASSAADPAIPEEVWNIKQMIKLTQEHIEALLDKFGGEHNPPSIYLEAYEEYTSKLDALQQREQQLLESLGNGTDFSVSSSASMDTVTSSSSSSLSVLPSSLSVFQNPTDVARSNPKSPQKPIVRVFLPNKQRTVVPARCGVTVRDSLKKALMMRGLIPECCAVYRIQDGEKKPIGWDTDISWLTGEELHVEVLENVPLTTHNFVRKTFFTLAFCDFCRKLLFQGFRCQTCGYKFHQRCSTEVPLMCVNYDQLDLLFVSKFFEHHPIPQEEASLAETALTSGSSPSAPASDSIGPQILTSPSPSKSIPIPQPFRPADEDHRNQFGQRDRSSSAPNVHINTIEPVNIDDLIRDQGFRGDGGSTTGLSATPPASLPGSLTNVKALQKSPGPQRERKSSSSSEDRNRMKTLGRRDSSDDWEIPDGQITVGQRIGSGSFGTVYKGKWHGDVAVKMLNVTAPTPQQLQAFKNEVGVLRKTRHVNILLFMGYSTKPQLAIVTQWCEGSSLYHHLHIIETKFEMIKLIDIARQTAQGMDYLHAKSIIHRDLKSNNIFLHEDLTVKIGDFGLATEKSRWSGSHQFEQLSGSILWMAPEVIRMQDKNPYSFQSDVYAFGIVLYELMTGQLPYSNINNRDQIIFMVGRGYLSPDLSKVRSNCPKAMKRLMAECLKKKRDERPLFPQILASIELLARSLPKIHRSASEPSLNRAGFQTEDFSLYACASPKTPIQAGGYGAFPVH

DC50	Emax	SMILES
9.43 nM	8.26%	CCN(C)S(=O)(=O)Nc1cccc(C(=O)c2c[nH]c3ncc(-c4cnc(N5CCN(C(=O)CN6CCC(c7ccc(NC8CCC(=O)NC8=O)cc7)CC6)CC5)nc4)cc23)c1F (stereo not drawn) [Example 96, 5-[2-[4-[2-[4-[4-[(2,6-dioxo-3-piperidyl)amino]phenyl]-1-piperidyl]acetyl]piperazin-1-yl]pyrimidin-5-yl]-3-[3-[[ethyl(methyl)sulfamoyl]amino]-2-fluoro-benzoyl]-1H-pyrrolo[2,3-b]pyridine]
6.62 nM	7.94%	CCN(C)S(=O)(=O)Nc1cccc(C(=O)c2c[nH]c3ncc(-c4cnc(N5CCN(C(=O)CN6CCC(c7ccc(NC8CCC(=O)NC8=O)cc7F)CC6)CC5)nc4)cc23)c1F (stereo not drawn) [Example 97, 5-[2-[4-[2-[4-[4-[(2,6-dioxo-3-piperidyl)amino]-2-fluoro-phenyl]-1-piperidyl]acetyl]piperazin-1-yl]pyrimidin-5-yl]-3-[3-[[ethyl(methyl)sulfamoyl]amino]-2-fluoro-benzoyl]-1H-pyrrolo[2,3-b]pyridine]
4.67 nM	7.42%	CCN(C)S(=O)(=O)Nc1cccc(C(=O)c2c[nH]c3ncc(-c4cnc(N5CCN(C(=O)CC6CCN(c7ccc(NC8CCC(=O)NC8=O)cc7F)CC6)CC5)nc4)cc23)c1F (stereo not drawn) [Example 98, 5-[2-[4-[2-[1-[4-[(2,6-dioxo-3-piperidyl)amino]-2-fluoro-phenyl]-4-piperidyl]acetyl]piperazin-1-yl]pyrimidin-5-yl]-3-[3-[[ethyl(methyl)sulfamoyl]amino]-2-fluoro-benzoyl]-1H-pyrrolo[2,3-b]pyridine]
9.55 nM	13.2%	CCN(C)S(=O)(=O)Nc1cccc(C(=O)c2c[nH]c3ncc(-c4cnc(N5CCN(C(=O)CC6(O)CCN(c7ccc(NC8CCC(=O)NC8=O)cc7)CC6)CC5)nc4)cc23)c1F (stereo not drawn) [Example 99, 5-[2-[4-[2-[1-[4-[(2,6-dioxo-3-piperidyl)amino]phenyl]-4-hydroxy-4-piperidyl]acetyl]piperazin-1-yl]pyrimidin-5-yl]-3-[3-[[ethyl(methyl)sulfamoyl]amino]-2-fluoro-benzoyl]-1H-pyrrolo[2,3-b]pyridine]
9.52 nM	6.76%	CCN(C)S(=O)(=O)Nc1cccc(C(=O)c2c[nH]c3ncc(-c4cnc(N5CCN(C(=O)CN6CCC(c7ccc(NC8CCC(=O)NC8=O)cc7)C(F)(F)C6)CC5)nc4)cc23)c1F (stereo not drawn) [Example 100, 5-[2-[4-[2-[4-[4-[(2,6-dioxo-3-piperidyl)amino]phenyl]-3,3-difluoro-1-piperidyl]acetyl]piperazin-1-yl]pyrimidin-5-yl]-3-[3-[[ethyl(methyl)sulfamoyl]amino]-2-fluoro-benzoyl]-1H-pyrrolo[2,3-b]pyridine]
3.38 nM	10.2%	CCN(C)S(=O)(=O)Nc1cccc(C(=O)c2c[nH]c3ncc(-c4cnc(N5CCN(C(=O)CC6(O)CCN(c7ccc(NC8CCC(=O)NC8=O)cc7F)CC6)CC5)nc4)cc23)c1F (stereo not drawn) [Example 101, 5-[2-[4-[2-[1-[4-[(2,6-dioxo-3-piperidyl)amino]-2-fluoro-phenyl]-4-hydroxy-4-piperidyl]acetyl]piperazin-1-yl]pyrimidin-5-yl]-3-[3-[[ethyl(methyl)sulfamoyl]amino]-2-fluoro-benzoyl]-1H-pyrrolo[2,3-b]pyridine]
6.88 nM	8.28%	CCN(C)S(=O)(=O)Nc1cccc(C(=O)c2c[nH]c3ncc(-c4cnc(N5CCN(C(=O)CC6(O)CCN(c7ccc(NC8CCC(=O)NC8=O)cc7F)C6)CC5)nc4)cc23)c1F (stereo not drawn) [Example 102, 5-[2-[4-[2-[1-[4-[(2,6-dioxo-3-piperidyl)amino]-2-fluoro-phenyl]-3-hydroxy-pyrrolidin-3-yl]acetyl]piperazin-1-yl]pyrimidin-5-yl]-3-[3-[[ethyl(methyl)sulfamoyl]amino]-2-fluoro-benzoyl]-1H-pyrrolo[2,3-b]pyridine]
3.04 nM	8.98%	CCN(C)S(=O)(=O)Nc1cccc(C(=O)c2c[nH]c3ncc(-c4cnc(N5CCN(C(=O)CC6(O)CCN(c7ccc(NC8CCC(=O)NC8=O)cc7Cl)CC6)CC5)nc4)cc23)c1F (stereo not drawn) [Example 103, 5-[2-[4-[2-[1-[2-chloro-4-[(2,6-dioxo-3-piperidyl)amino]phenyl]-4-hydroxy-4-piperidyl]acetyl]piperazin-1-yl]pyrimidin-5-yl]-3-[3-[[ethyl(methyl)sulfamoyl]amino]-2-fluoro-benzoyl]-1H-pyrrolo[2,3-b]pyridine]
3.37 nM	10.8%	CCN(C)S(=O)(=O)Nc1cccc(C(=O)c2c[nH]c3ncc(-c4cnc(N5CCN(C(=O)CC6(O)CCN(c7ncc(NC8CCC(=O)NC8=O)cc7F)CC6)CC5)nc4)cc23)c1F (stereo not drawn) [Example 104, 5-[2-[4-[2-[1-[5-[(2,6-dioxo-3-piperidyl)amino]-3-fluoro-2-pyridyl]-4-hydroxy-4-piperidyl]acetyl]piperazin-1-yl]pyrimidin-5-yl]-3-[3-[[ethyl(methyl)sulfamoyl]amino]-2-fluoro-benzoyl]-1H-pyrrolo[2,3-b]pyridine]
42.2 nM	36.9%	CCN(C)S(=O)(=O)Nc1cccc(C(=O)c2c[nH]c3ncc(-c4cnc(N5CCN(C(=O)CC6(O)CCN(c7ccc(NC8CCC(=O)NC8=O)cn7)CC6)CC5)nc4)cc23)c1F (stereo not drawn) [Example 105, 5-[2-[4-[2-[1-[5-[(2,6-dioxo-3-piperidyl)amino]-2-pyridyl]-4-hydroxy-4-piperidyl]acetyl]piperazin-1-yl]pyrimidin-5-yl]-3-[3-[[ethyl(methyl)sulfamoyl]amino]-2-fluoro-benzoyl]-1H-pyrrolo[2,3-b]pyridine]
34.8 nM	11.5%	CCN(C)S(=O)(=O)Nc1cccc(C(=O)c2c[nH]c3ncc(-c4cnc(N5CCN(C(=O)CC6CCN(c7ccc(NC8CCC(=O)NC8=O)cc7C(F)(F)F)CC6)CC5)nc4)cc23)c1F (stereo not drawn) [Example 106, 5-[2-[4-[2-[1-[4-[(2,6-dioxo-3-piperidyl)amino]-2-(trifluoromethyl)phenyl]-4-piperidyl]acetyl]piperazin-1-yl]pyrimidin-5-yl]-3-[3-[[ethyl(methyl)sulfamoyl]amino]-2-fluoro-benzoyl]-1H-pyrrolo[2,3-b]pyridine]
3.08 nM	7.97%	CCN(C)S(=O)(=O)Nc1cccc(C(=O)c2c[nH]c3ncc(-c4ccc(N5CCN(C(=O)CN6CCC(c7ccc(NC8CCC(=O)NC8=O)cc7)CC6)CC5)nc4)cc23)c1F (stereo not drawn) [Example 107, 5-[6-[4-[2-[4-[4-[(2,6-dioxo-3-piperidyl)amino]phenyl]-1-piperidyl]acetyl]piperazin-1-yl]-3-pyridyl]-3-[3-[[ethyl(methyl)sulfamoyl]amino]-2-fluoro-benzoyl]-1H-pyrrolo[2,3-b]pyridine]
5.6 nM	11.4%	CCN(C)S(=O)(=O)Nc1cccc(C(=O)c2c[nH]c3ncc(-c4ccc(N5CCN(C(=O)CN6CCC(c7ccc(OC8CCC(=O)NC8=O)cc7)CC6)CC5)nc4)cc23)c1F (stereo not drawn) [Example 108, 5-[6-[4-[2-[4-[4-[(2,6-dioxo-3-piperidyl)oxy]phenyl]-1-piperidyl]acetyl]piperazin-1-yl]-3-pyridyl]-3-[3-[[ethyl(methyl)sulfamoyl]amino]-2-fluoro-benzoyl]-1H-pyrrolo[2,3-b]pyridine]
5.49 nM	10.8%	CCN(C)S(=O)(=O)Nc1cccc(C(=O)c2c[nH]c3ncc(-c4ccc(N5CCN(C(=O)CC6(O)CCN(c7ccc(NC8CCC(=O)NC8=O)cc7)CC6)CC5)nc4)cc23)c1F (stereo not drawn) [Example 109, 5-[6-[4-[2-[1-[4-[(2,6-dioxo-3-piperidyl)amino]phenyl]-4-hydroxy-4-piperidyl]acetyl]piperazin-1-yl]-3-pyridyl]-3-[3-[[ethyl(methyl)sulfamoyl]amino]-2-fluoro-benzoyl]-1H-pyrrolo[2,3-b]pyridine]
4.47 nM	7.75%	CCN(C)S(=O)(=O)Nc1cccc(C(=O)c2c[nH]c3ncc(-c4ccc(N5CCN(C(=O)CN6CCC(c7ccc(NC8CCC(=O)NC8=O)cc7)C(F)(F)C6)CC5)nc4)cc23)c1F (stereo not drawn) [Example 110, 5-[6-[4-[2-[4-[4-[(2,6-dioxo-3-piperidyl)amino]phenyl]-3,3-difluoro-1-piperidyl]acetyl]piperazin-1-yl]-3-pyridyl]-3-[3-[[ethyl(methyl)sulfamoyl]amino]-2-fluoro-benzoyl]-1H-pyrrolo[2,3-b]pyridine]
9.66 nM	15.6%	CCN(C)S(=O)(=O)Nc1cccc(C(=O)c2c[nH]c3ncc(-c4ccc(N5CCN(C(=O)CC6CCN(c7ccc(NC8CCC(=O)NC8=O)cc7F)CC6)CC5)nc4)cc23)c1F (stereo not drawn) [Example 111, 5-[6-[4-[2-[1-[4-[(2,6-dioxo-3-piperidyl)amino]-2-fluoro-phenyl]-4-piperidyl]acetyl]piperazin-1-yl]-3-pyridyl]-3-[3-[[ethyl(methyl)sulfamoyl]amino]-2-fluoro-benzoyl]-1H-pyrrolo[2,3-b]pyridine]
6.46 nM	10.8%	CCN(C)S(=O)(=O)Nc1cccc(C(=O)c2c[nH]c3ncc(-c4ccc(N5CCN(C(=O)CC6(O)CCN(c7ccc(NC8CCC(=O)NC8=O)cc7F)CC6)CC5)nc4)cc23)c1F (stereo not drawn) [Example 112, 5-[6-[4-[2-[1-[4-[(2,6-dioxo-3-piperidyl)amino]-2-fluoro-phenyl]-4-hydroxy-4-piperidyl]acetyl]piperazin-1-yl]-3-pyridyl]-3-[3-[[ethyl(methyl)sulfamoyl]amino]-2-fluoro-benzoyl]-1H-pyrrolo[2,3-b]pyridine]
26.3 nM	27.7%	CCN(C)S(=O)(=O)Nc1cccc(C(=O)c2c[nH]c3ncc(-c4ccc(N5CCN(C(=O)CC6(O)CCN(c7ccc(NC8CCC(=O)NC8=O)cn7)CC6)CC5)nc4)cc23)c1F (stereo not drawn) [Example 113, 5-[6-[4-[2-[1-[5-[(2,6-dioxo-3-piperidyl)amino]-2-pyridyl]-4-hydroxy-4-piperidyl]acetyl]piperazin-1-yl]-3-pyridyl]-3-[3-[[ethyl(methyl)sulfamoyl]amino]-2-fluoro-benzoyl]-1H-pyrrolo[2,3-b]pyridine]
